From paper PMC8588310, “Identification and Preliminary Structure-Activity Relationship Studies of 1,5-Dihydrobenzo[e][1,4]oxazepin-2(3H)-ones That Induce Differentiation of Acute Myeloid Leukemia Cells In Vitro” (Molecules, 2021) come the findings set out here.

≈ marks a conversion by molar mass, not a printed value.

The subject of one series is HL-60 cells. The experiment in a line: CD11b expression assay by flow cytometry in HL-60 cells. It is filed as cell-based, human. The conditions noted are these: for EC50: Homo sapiens, HL-60, 96 h, 4-day (96 h) treatment, CD11b upregulation, read-out: EC50 [nM], %CD11b response in HL60 cells; for EC50 / Activity in the CD11b assay: HL-60 cells; for LipE (lipophilic efficiency): LipE = -LogEC50-cLogP, EC50 of CD11b assay in HL-60; for Activity in the CD11b assay: concentration-response. On the procedure:
Cells were treated with 1000 structurally diverse small molecules selected from a commercial library. A single point testing concentration of 10 µM was used. After 4 days, cells were stained with a CD11b antibody and analysed using flow cytometry. Compounds upregulating CD11b expression greater than 10% in at least three of the cell lines were considered as potential hits. Hit confirmation was undertaken as follows: first, the hit was re-tested at 10 µM both with the CD11b antibody and an isotype control to account for nonspecific binding. Secondly, the effect of the hit on cell proliferation and viability was evaluated through staining with DAPI to evaluate the number of dead cells, and with acridine orange to detect total cell numbers. Thirdly, the induction of differentiation caused by the compounds was confirmed through morphology assessment with Giemsa staining. Finally, the molecule was resynthesised and fully characterised to confirm structural authenticity. This fresh sample was then retested in the CD11b assay to generate a concentration-response curve. The study of proliferation and morphology was performed on a panel of six cell lines: HL-60, THP-1, OCI-AML3, KG-1, Kasumi-1 and ME-1.
Thus, structure-activity relationship studies were initiated, where the potency of the new analogues was evaluated through concentration-response testing using the CD11b assay in HL-60 cells. Lipophilic efficiency (LipE), which also accounts for lipophilicity, was also used to compare the quality of the analogues. Even though multiple parameters can influence activity in a cell-based assay, LipE is a useful guide to compare analogues.
PE mouse-anti-human-CD11b/Mac-1 (ICRF44, Cat 555388) and PE-mouse-IgG1-κ-isotype control (MOPC-21, Cat 555749) were purchased from BD Bioscience. Cells were suspended in 100 μL growth media (RPMI + 10% FBS + 1% L-glutamine) at a density of 2 × 10^4 cells/well of a V-bottom 96 well plate (Corning, Cat 3894) and grown for 96 h in the presence of compound at the required concentration. After 96 h, the plate was centrifuged, media was removed, and cells were resuspended in 50 µL of blocking buffer (IMDM, no phenol red + 10% FBS) containing 2.5 μL of either CD11b or isotype control antibody and incubated on ice in the dark for 20 min. Cells were washed twice in 200 μL of staining buffer (IMDM, no phenol red + 1% FBS) before being resuspended in 200 μL of staining buffer containing 1 μg/mL of DAPI to help identify dead cells. Flow cytometry data were collected on an Attune NxT and analysed using the Attune NxT software (Life Technologies).
In general terms: In flow cytometry, cells or beads pass a laser one at a time.

Series [1] can be described thus: Semi-thermodynamic aqueous solubility. The note with it: thermodynamic from solid. It is filed as physicochemical. On the procedure: (§1) Determination of semi-thermodynamic solubility, metabolic stability in S9 fraction, Caco-2 permeability and PPB were performed by Cyprotex Ltd. (www.cyprotex.com, accessed on 22 October 2021) using their standard assays and as described on their website.

Series [2] is described as follows: Metabolic stability in mouse S9 fraction. The class given is in vitro ADME. The note with it: ER = Clint/species flow rate (mice: 90 mL/min/kg). How it is done: as §1
[22] Extraction ratio (ER) is calculated as the measured intrinsic clearance over the hepatic blood flow of each species (90 mL/min/kg for mice). It has the advantage over other parameters (half-life, clearance) that it is independent of the species used

Series [3] can be described thus: Single dose PK study in male CD-1 mice. It is filed as in vivo, mouse. The source says: In order to undertake a preliminary assessment of the pharmacokinetic (PK) profile of this compound class, three compounds were deemed to have sufficient intrinsic potency, solubility and in vitro metabolic stability properties to progress into a single dose in vivo PK study. […] […] […] Nonetheless, the clearance of the three compounds was high to moderate, and at this dose the in vitro EC50 was not reached.
Male CD-1 mice were used for the PK studies, with three for each treatment. […] Blood concentration was measured by LC-MS/MS over 24 h.

Where [4] appears, read: aqueous (buffer or water not specified).
[5] abbreviates: mouse, whole blood, single dose 3 mg/kg po, blood.

A word on the EC50: it is the concentration that produces a half-maximal response. A word on the thermodynamic solubility: it is the concentration in solution at equilibrium with solid. A word on the bioavailability: it is dose-corrected exposure relative to a reference, in per cent. Low readings indicate little systemic uptake, high ones much systemic uptake. Broadly, the half-life is how long it takes for the measured level to halve. High values mean slow loss, low ones fast loss. The term Cmax denotes the maximum level reached in the sampled fluid or tissue. In general, Tmax refers to the time at which the peak concentration occurs.

Regarding `CC(C)N1C(=O)COCc2ccc(-c3cccc(NS(=O)(=O)C(F)(F)F)c3)cc21` [Compound 34, 1,1,1-Trifluoro-N-(3-(1-isopropyl-2-oxo-1,2,3,5-tetrahydrobenzo[e][1,4]oxazepin-8-yl)phenyl)methanesulfonamide], in the series on HL-60 cells, the EC50 is over 10000 nM.
On to `CCCS(=O)(=O)Nc1cccc(-c2ccc3c(c2)N(C(C)C)C(=O)COC3)c1` [Compound 33, N-(3-(1-Isopropyl-2-oxo-1,2,3,5-tetrahydrobenzo[e][1,4]oxazepin-8-yl)phenyl)propane-1-sulfonamide], for which the “Decrease in potency compared to OXS007002” value in the series with HL-60 cells (CD11b EC50 in HL-60, vs OXS007002) came out at 10 fold. Moreover, in the series on HL-60 cells, the EC50 was 6800 nM and the “LipE (lipophilic efficiency)” value was found to be 2.5.
On to `CS(=O)(=O)Nc1cccc(-c2ccc3c(c2)NC(=O)COC3)c1` [Compound 6, N-(3-(2-Oxo-1,2,3,5-tetrahydrobenzo[e][1,4]oxazepin-8-yl)phenyl)methanesulfonamide], for which, in the series with HL-60 cells, the “Activity in the CD11b assay” value was “completely inactive” and the EC50 was over 10000 nM. Moreover, in series [1] (setting [4]), the solubility (thermodynamic) is over 200 µM.
`Cc1ccc(-c2ccc3c(c2)N(C(C)C)C(=O)COC3)cc1NS(C)(=O)=O` [Compound 36, N-(5-(1-Isopropyl-2-oxo-1,2,3,5-tetrahydrobenzo[e][1,4]oxazepin-8-yl)-2-methylphenyl)methanesulfonamide]: in the series with HL-60 cells, the EC50 came to 600 nM and the “LipE (lipophilic efficiency)” value came out at 4.1. The “ER in mS9 (extraction ratio)” value in series [2] is given as 1. In series [1] (aqueous (not further specified)), this molecule showed a thermodynamic solubility of over 200 µM.
For `CC(C)CN1C(=O)COCc2ccc(-c3cccc(NS(C)(=O)=O)c3)cc21` [Compound 10, N-(3-(1-Isobutyl-2-oxo-1,2,3,5-tetrahydrobenzo[e][1,4]oxazepin-8-yl)phenyl)methanesulfonamide], in the series on HL-60 cells, the EC50 was 740 nM and the “LipE (lipophilic efficiency)” value was 4.0. For the same molecule, the “ER in mS9 (extraction ratio)” value in series [2] came out at 0.51. This molecule registered a thermodynamic solubility in series [1] (setting [4]) of over 200 µM.
Turning to `CN1C(=O)COCc2ccc(-c3cccc(NS(C)(=O)=O)c3)cc21` [Compound 7, N-(3-(1-Methyl-2-oxo-1,2,3,5-tetrahydrobenzo[e][1,4]oxazepin-8-yl)phenyl)methanesulfonamide], in the series with HL-60 cells, the “Activity in the CD11b assay” value is “completely inactive” and the EC50 was over 30000 nM. For the same molecule, the “ER in mS9 (extraction ratio)” value in series [2] stood at 0.07. Also, in series [1] (setting [4]), the solubility (thermodynamic) was over 200 µM.
For the molecule `CCN1C(=O)COCc2ccc(-c3cccc(NS(C)(=O)=O)c3)cc21` [Compound 8, N-(3-(1-Ethyl-2-oxo-1,2,3,5-tetrahydrobenzo[e][1,4]oxazepin-8-yl)phenyl)methanesulfonamide], in the series on HL-60 cells, the EC50 turned out to be 6200 nM and the “LipE (lipophilic efficiency)” value came to 3.8. The “ER in mS9 (extraction ratio)” value in series [2] came to 0.25. This molecule displayed a solubility (thermodynamic) in series [1] (setting [4]) of over 200 µM.
With `CC(C)N1C(=O)COCc2ccc(-c3cncc(NS(C)(=O)=O)c3)cc21` [Compound 39, N-(5-(1-Isopropyl-2-oxo-1,2,3,5-tetrahydrobenzo[e][1,4]oxazepin-8-yl)pyridin-3-yl)methanesulfonamide], in the series on HL-60 cells, the “Activity in the CD11b assay” value is listed as “abolished activity” and the concentration for a half-maximal effect (EC50) was over 30000 nM.
With `CC(C)N1C(=O)COCc2ccc(-c3cccc(N(C)C)c3)cc21` [Compound 30, 8-(3-(Dimethylamino)phenyl)-1-isopropyl-1,5-dihydrobenzo[e][1,4]oxazepin-2(3H)-one], in the series with HL-60 cells, the EC50 was determined as 12000 nM and the “LipE (lipophilic efficiency)” value stood at 2.4.
Regarding `CS(=O)(=O)Nc1cccc(-c2ccc3c(c2)N(C2CCCC2)C(=O)COC3)c1` [Compound 12, N-(3-(1-Cyclopentyl-2-oxo-1,2,3,5-tetrahydrobenzo[e][1,4]oxazepin-8-yl)phenyl)methanesulfonamide], in the series with HL-60 cells, the EC50 came to 650 nM and the “LipE (lipophilic efficiency)” value was found to be 4.0. Also, the “ER in mS9 (extraction ratio)” value in series [2] worked out at 0.83. Moreover, the thermodynamic solubility in series [1] (setting [4]) turned out to be 124 µM (≈ 49.7 µg/mL).
Regarding `CC(C)N1C(=O)COCc2ncc(-c3cccc(NS(C)(=O)=O)c3)cc21` [Compound 42, N-(3-(1-Isopropyl-2-oxo-1,2,3,5-tetrahydropyrido[3,2-e][1,4]oxazepin-8-yl)phenyl)methanesulfonamide], in the series on HL-60 cells, the “Activity in the CD11b assay” value is reported as “retained weak activity”, the EC50 is 2200 nM and the “LipE (lipophilic efficiency)” value turned out to be 4.9. Also, the “ER in mS9 (extraction ratio)” value in series [2] was 0.09. Also, in series [1] (aqueous medium (buffer not specified)), the solubility (thermodynamic) was over 200 µM.
`CS(=O)(=O)Nc1cccc(-c2ccc3c(c2)N(c2ccccc2)C(=O)COC3)c1` [Compound 14, N-(3-(2-Oxo-1-phenyl-1,2,3,5-tetrahydrobenzo[e][1,4]oxazepin-8-yl)phenyl)methanesulfonamide]: in the series with HL-60 cells, the EC50 turned out to be 220 nM and the “LipE (lipophilic efficiency)” value is recorded as 3.9. For the same molecule, the solubility (thermodynamic) in series [1] (setting [4]) came out at 14 µM (≈ 5.72 µg/mL). This molecule had a bioavailability in series [3] (mouse, whole blood, 3 mg/kg po vs 0.33 mg/kg iv) of 15%. Also, the half-life in series [3] (mouse, whole blood, single dose 3 mg/kg po and 0.33 mg/kg iv, blood, route of parameter not given) was 4.1 h. Also, in series [3] (setting [5]), the Cmax was 44 ng/mL and the Tmax stood at 1.2 h. Also, the Vd/F in series [3] (mouse, whole blood, single dose 3 mg/kg po, blood, read-out: Vz/F) was found to be 100 L/kg. This molecule also returned a Clobs in series [3] (single dose 0.33 mg/kg iv, blood) of 43 mL/min/kg. Also, in series [3] (single dose 3 mg/kg po, blood), the Clobs/F is 286 mL/min/kg. In series [3] (single dose iv 0.33 mg/kg and po 3 mg/kg), the “Clearance” value is recorded as “lowest clearance”.
As for `CC(C)N1C(=O)COCc2ccc(Oc3cccc(NS(C)(=O)=O)c3)cc21` [Compound 40, N-(3-((1-Isopropyl-2-oxo-1,2,3,5-tetrahydrobenzo[e][1,4]oxazepin-8-yl)oxy)phenyl)methanesulfonamide], in the series with HL-60 cells, the “Activity in the CD11b assay” value is on record as “abolished activity” and the EC50 is over 30000 nM.
For the molecule `CC(C)N1C(=O)COCc2ccc(-c3cccc(N)c3)cc21` [Compound 29, 8-(3-Aminophenyl)-1-isopropyl-1,5-dihydrobenzo[e][1,4]oxazepin-2(3H)-one], in the series on HL-60 cells, the EC50 stood at 3300 nM and the “LipE (lipophilic efficiency)” value was 3.5.
Consider `COc1cc(NS(C)(=O)=O)cc(-c2ccc3c(c2)N(C(C)C)C(=O)COC3)c1` [Compound 38, N-(3-(1-Isopropyl-2-oxo-1,2,3,5-tetrahydrobenzo[e][1,4]oxazepin-8-yl)-5-methoxyphenyl)methanesulfonamide], for which the EC50 in the series with HL-60 cells was over 30000 nM.
In the case of `CC(C)N1C(=O)COCc2ccc(-c3cccc(C(=O)O)c3)cc21` [Compound 32, 3-(1-Isopropyl-2-oxo-1,2,3,5-tetrahydrobenzo[e][1,4]oxazepin-8-yl)benzoic acid], in the series with HL-60 cells, the EC50 was over 30000 nM.
On to `CC(C)N1C(=O)COCc2ccc(-c3cccc(S(C)(=N)=O)c3)cc21` (stereo not drawn) [Compound 27, 1-Isopropyl-8-(3-(S-methylsulfonimidoyl)phenyl)-1,5-dihydrobenzo[e][1,4]oxazepin-2(3H)-one], for which, in the series with HL-60 cells, the “Activity in the CD11b assay” value was “removed the activity” and the EC50 was over 30000 nM.
Regarding `COc1cccc(-c2ccc3c(c2)N(C(C)C)C(=O)COC3)c1` [Compound 31, 1-Isopropyl-8-(3-methoxyphenyl)-1,5-dihydrobenzo[e][1,4]oxazepin-2(3H)-one], in the series on HL-60 cells, the EC50 was over 10000 nM.
Regarding `CC(C)N1C(=O)COCc2ccc(-c3ccc(NS(C)(=O)=O)cc3)cc21` [Compound 26, N-(4-(1-Isopropyl-2-oxo-1,2,3,5-tetrahydrobenzo[e][1,4]oxazepin-8-yl)phenyl)methanesulfonamide], the EC50 with HL-60 cells was over 30000 nM.
